Several values for one entry are separate records, joined by “and”; a condition that tells them apart may be missing. Equal entries are not always repeated.

Format in all cases: cell-based
Conditions in all cases: 18-24 hrs

The target of one experiment is T1, PPARα (Homo sapiens, UniProt Q07869).
T1 construct: expressed in transfected cells; host or cells: HEK293
T1 sequence (Q07869 239-466 limits assumed): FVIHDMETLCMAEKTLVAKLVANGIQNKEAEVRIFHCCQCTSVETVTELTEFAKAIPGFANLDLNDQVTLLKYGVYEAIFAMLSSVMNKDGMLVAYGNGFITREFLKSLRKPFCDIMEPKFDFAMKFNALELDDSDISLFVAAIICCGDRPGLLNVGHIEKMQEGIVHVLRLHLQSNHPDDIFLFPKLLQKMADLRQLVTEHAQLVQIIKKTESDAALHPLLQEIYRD
Kind of experiment: Transfection assay, GAL4-PPARα LBD luciferase reporter in HEK293 cells. The protocol:
(§1) HEK293 cells were grown in DMEM/F12 medium supplemented with 10% FBS and glutamine (Invitrogen) and incubated in a 5% CO2 incubator at 37° C. The cells were co-transfected using DMRIE-C reagent (Invitrogen) in serum free medium (Opti-MEM, Invitrogen) with two mammalian expression plasmids, one containing the DNA sequence coding for the ligand binding domains of either PPARα, γ or δ fused to the yeast GAL4 DNA binding domain and the other containing the promoter sequence of the yeast GAL4 (UAS) fused to the firefly luciferase cDNA reporter. The next day, the medium was changed to DMEM/F12 medium supplemented with 5% charcoal treated serum (Hyclone) and glutamine. After 6 hrs the cells were trypsinized and seeded at a density of 50,000 cells/well into 96 well plates and incubated overnight as above. The cells were then treated with test compounds or vehicle and incubated for 18-24 hrs as above. Luciferase reporter activity was measured using the Steady-Glo Luciferase Assay Kit from Promega. DMRIE-C Reagent was purchased from GIBCO Cat. No. 10459-014. OPTI-MEM I Reduced Serum Medium was purchased from GIBCO (Cat. No. 31985). Steady-Glo Luciferase Assay Kit was purchased from Promega (Part #E254B).
(§2) A variety of example compounds have been made and tested, with a range of in vitro results. Below, in Table 2, are representative compounds and data; in some cases, where multiple EC50's are shown, multiple measurements were taken. Naturally, different compounds in Formula (I) may have not activities identical to any one compound below.
For orientation: A reporter such as luciferase makes a cellular process visible.

The next experiment deals with T2, PPARγ (Homo sapiens, UniProt P37231).
T2 construct: expressed in transfected cells; host or cells: HEK293
T2 sequence (P37231 238-503 limits assumed): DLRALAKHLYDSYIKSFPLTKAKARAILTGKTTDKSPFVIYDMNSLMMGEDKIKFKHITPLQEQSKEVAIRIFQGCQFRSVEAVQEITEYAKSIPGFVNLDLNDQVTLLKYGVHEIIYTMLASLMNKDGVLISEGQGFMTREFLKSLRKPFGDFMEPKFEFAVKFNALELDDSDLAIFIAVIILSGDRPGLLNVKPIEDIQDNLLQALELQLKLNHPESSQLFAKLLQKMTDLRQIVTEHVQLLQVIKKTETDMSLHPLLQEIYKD
Kind of experiment: Transfection assay, GAL4-PPARγ LBD luciferase reporter in HEK293 cells. The procedure: as §1, §2

A further experiment concerns the target T3, PPARδ (Homo sapiens, UniProt Q03181).
T3 construct: expressed in transfected cells; host or cells: HEK293
T3 sequence (Q03181 211-439 limits assumed): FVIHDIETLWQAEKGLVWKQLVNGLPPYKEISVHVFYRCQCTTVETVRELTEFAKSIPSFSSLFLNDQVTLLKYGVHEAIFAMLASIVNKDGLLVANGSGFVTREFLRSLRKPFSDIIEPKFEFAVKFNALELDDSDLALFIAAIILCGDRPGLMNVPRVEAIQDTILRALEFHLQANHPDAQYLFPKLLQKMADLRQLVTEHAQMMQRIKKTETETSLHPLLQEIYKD
Kind of experiment: Transfection assay, GAL4-PPARδ LBD luciferase reporter in HEK293 cells. The procedure:
as §1, §2

In general, EC50 refers to the concentration needed to bring the measured effect to its halfway point. Read a high EC50 as weaker potency. Regarding `CC(C)(Oc1ccc2c(c1)CCN(Cc1cnn(-c3ccc(C(F)(F)F)cc3)c1)CC2)C(=O)O` [compound 21], the EC50 on PPARα was more than 3 µM; on PPARγ, more than 3 µM; at PPARδ, 0.422 µM.
Regarding `O=C(O)COc1ccc2c(c1)CCN(Cc1ccc(-c3ccc(Cl)cc3Cl)o1)CC2` [compound 33], the EC50 on PPARα was more than 3 µM; on PPARγ, more than 3 µM; at PPARδ, 0.148 µM and 0.167 µM.
Regarding `CC(c1ccc(-c2ccc(C(F)(F)F)cc2)s1)N1CCc2ccc(OCC(=O)O)cc2CC1` (racemic) [compound 27], the EC50 is more than 3 µM at PPARα; more than 3 µM on PPARγ; < 0.003 µM and 0.0014 µM at PPARδ.
For `CC(C)(Oc1ccc2c(c1)CCN(Cc1cc(-c3ccc(C(F)(F)F)cc3)on1)CC2)C(=O)O` [compound 12], the results for the EC50 at PPARα, at PPARγ and on PPARδ were more than 1 µM, more than 3 µM and 0.122 µM, respectively.
Turning to `CC(C)(Oc1ccc2c(c1)CCN(Cc1cc(-c3ccc(C(F)(F)F)cc3)ns1)CC2)C(=O)O` [compound 2], the EC50 is more than 3 µM at PPARα, more than 3 µM at PPARγ and 0.162 µM at PPARδ.
Take `O=C(O)COc1ccc2c(c1)CCN(Cc1ccc(-c3ccc(Cl)cc3)o1)CC2` [compound 35]: the values for the EC50 at PPARα, at PPARγ and at PPARδ were more than 3 µM, more than 3 µM and 0.169 µM, respectively.
In the case of `Cc1c(-c2ccc(C(F)(F)F)cc2)csc1CN1CCc2ccc(OCC(=O)O)cc2CC1` [compound 15], the EC50 at PPARα is more than 3 µM; at PPARγ it was more than 3 µM; at PPARδ it was 0.104 µM.
Turning to `O=C(O)COc1ccc2c(c1)CCN(Cc1cc(-c3ccc(C(F)(F)F)cc3)on1)CC2` [compound 11], the figures for the concentration giving a half-maximal response (EC50) on PPARα, on PPARγ and on PPARδ were more than 1 µM, more than 3 µM and 0.136 µM, respectively.
For `CC1CN(Cc2ccc(-c3ccc(C(F)(F)F)cc3)s2)CCc2ccc(OCC(=O)O)cc21` (stereo not drawn) [compound 25], the EC50 on PPARα is more than 1 µM; on PPARγ, more than 3 µM; at PPARδ it was 0.011 µM and 0.0108 µM.
Consider `O=C(O)COc1ccc2c(c1)CCN(Cc1ccc(-c3ccc(C(F)(F)F)cc3)o1)CC2` [compound 9], for which the EC50 on PPARα was more than 3 µM; on PPARγ, more than 3 µM; on PPARδ, 0.0742 µM and 0.0709 µM.
Turning to `CC(C)(Oc1ccc2c(c1)CCN(Cc1ccc(-c3ccc(C(F)(F)F)cc3)o1)CC2)C(=O)O` [compound 10], the EC50 on PPARα is more than 3 µM; on PPARγ, more than 3 µM; at PPARδ, 0.053 µM and 0.0877 µM.
Consider `CC(c1ccc(-c2ccc(C(F)(F)F)cc2)o1)N1CCc2ccc(OCC(=O)O)cc2CC1` (stereo not drawn) [compound 28], for which the EC50 is more than 3 µM on PPARα, more than 3 µM on PPARγ and less than 0.003 µM at PPARδ.
Take `CC(c1ccc(-c2ccc(C(F)(F)F)cc2)o1)N1CCc2ccc(OCC(=O)O)cc2CC1` (single isomer, unassigned) [28b]: the EC50 is more than 3 µM on PPARα; more than 3 µM on PPARγ; 0.0054 µM and 0.0098 µM at PPARδ.
Consider `O=C(O)C1(Oc2ccc3c(c2)CCN(Cc2cnc(-c4ccc(C(F)(F)F)cc4)s2)CC3)CC1` [compound 39], for which the values for the EC50 at PPARα, at PPARγ and at PPARδ were more than 1 µM, more than 1 µM and 0.012 µM, respectively.
On to `CC1CN(Cc2ccc(-c3ccc(C(F)(F)F)cc3)o2)CCc2ccc(OCC(=O)O)cc21` (stereo not drawn) [compound 26], for which the values for the EC50 at PPARα, on PPARγ and at PPARδ were more than 3 µM, more than 3 µM and 0.0158 µM, respectively.
As for `Cc1cc(-c2ccc(C(F)(F)F)cc2)sc1CN1CCc2ccc(OCC(=O)O)cc2CC1` [compound 13], the EC50 was more than 3 µM on PPARα; more than 3 µM on PPARγ; 0.174 µM and 0.193 µM at PPARδ.
With `O=C(O)C1(Oc2ccc3c(c2)CCN(Cc2ccc(-c4ccc(C(F)(F)F)cc4)s2)CC3)CC1` [compound 37], the EC50 was more than 3 µM on PPARα, more than 3 µM at PPARγ and 0.0053 µM at PPARδ.
For `Cc1c(-c2ccc(C(F)(F)F)cc2)csc1CN1CCc2ccc(OC(C)(C)C(=O)O)cc2CC1` [compound 16], the EC50 was more than 3 µM on PPARα, more than 3 µM at PPARγ and 0.375 µM on PPARδ.
As to `Cc1nc(-c2ccc(C(F)(F)F)cc2)sc1CN1CCc2ccc(OCC(=O)O)cc2CC1` [compound 5], the EC50 on PPARα is more than 3 µM; at PPARγ, more than 3 µM; at PPARδ, 0.0516 µM.
Regarding `O=C(O)COc1ccc2c(c1)CCN(Cc1cc(-c3ccc(C(F)(F)F)cc3)ns1)CC2` [compound 1], the EC50 was 0.546 µM and 0.758 µM on PPARα; more than 3 µM on PPARγ; 0.0341 µM and 0.0666 µM on PPARδ.
For the compound `Cc1nc(-c2ccc(C(F)(F)F)cc2)sc1CN1CCc2ccc(OC(C)(C)C(=O)O)cc2CC1` [compound 6], the values for the EC50 on PPARα, on PPARγ and on PPARδ were more than 1 µM, more than 3 µM and 0.243 µM, respectively.
Regarding `CC(c1ccc(-c2ccc(C(F)(F)F)cc2)s1)N1CCc2ccc(OCC(=O)O)cc2CC1` (single isomer, unassigned) [27b], the EC50 at PPARα was more than 3 µM; at PPARγ, more than 3 µM; on PPARδ, 0.0126 µM and 0.0139 µM.
In the case of `CC(c1ccc(-c2ccc(C(F)(F)F)cc2)o1)N1CCc2ccc(OCC(=O)O)cc2CC1` (single isomer, unassigned) [28a], the EC50 is more than 3 µM on PPARα, more than 3 µM at PPARγ and 0.0018 µM on PPARδ.
`O=C(O)C1(Oc2ccc3c(c2)CCN(Cc2ccc(-c4ccc(C(F)(F)F)cc4)o2)CC3)CC1` [compound 38]: the EC50 at PPARα is 0.031 µM; at PPARγ, more than 1 µM; on PPARδ, 0.018 µM.
On the same counts, the results for `O=C(O)COc1ccc2c(c1)CCN(Cc1csc(-c3ccc(C(F)(F)F)cc3)n1)CC2` [compound 17] are more than 3 µM, more than 3 µM and 0.439 µM.
On the same counts, the results for `O=C(O)COc1ccc2c(c1)CCN(Cc1ccc(-c3ccc(OC(F)(F)F)cc3)s1)CC2` [compound 32] are more than 3 µM, more than 3 µM and 0.157 µM.
On the same counts, the results for `O=C(O)COc1ccc2c(c1)CCN(Cc1cnn(-c3ccc(C(F)(F)F)cc3)c1)CC2` [compound 20] are more than 3 µM, more than 3 µM and more than 1 µM.
Take `Cc1nc(-c2ccc(C(F)(F)F)cc2)oc1CN1CCc2ccc(OCC(=O)O)cc2CC1` [compound 18]: the EC50 at PPARα was more than 3 µM; on PPARγ, more than 3 µM; on PPARδ, 0.174 µM.
As to `O=C(O)COc1ccc2c(c1)CCN(Cc1ccc(-c3ccc(OC(F)(F)F)cc3)o1)CC2` [compound 34], the values for the EC50 on PPARα, on PPARγ and on PPARδ were more than 3 µM, more than 3 µM and 0.373 µM, respectively.
For `O=C(O)COc1ccc2c(c1)CCN(Cc1ccc(-c3ccc(Cl)cc3Cl)s1)CC2` [compound 31], the EC50 at PPARα was more than 3 µM; on PPARγ, more than 3 µM; at PPARδ, 0.237 µM.
Consider `CC(c1cnc(-c2ccc(C(F)(F)F)cc2)s1)N1CCc2ccc(OCC(=O)O)cc2CC1` (stereo not drawn) [compound 29], for which the values for the EC50 at PPARα, at PPARγ and at PPARδ were more than 3 µM, 0.622 µM and less than 0.003 µM, respectively.
Regarding `O=C(O)COc1ccc2c(c1)CCN(Cc1cnc(-c3ccc(C(F)(F)F)cc3)s1)CC2` [compound 24], the EC50 is more than 1 µM on PPARα; more than 3 µM on PPARγ; 0.0271 µM and 0.022 µM at PPARδ.
Regarding `O=C(O)COc1ccc2c(c1)CCN(Cc1ccnc(-c3ccc(C(F)(F)F)cc3)n1)CC2` [compound 41], the EC50 was more than 3 µM at PPARα, more than 3 µM at PPARγ and more than 1 µM at PPARδ.

(Values after patent US8633184B2, “Benzoazepin-oxy-acetic acid derivatives as PPAR-delta agonists used for the increase of HDL-C, lower LDL-C and lower cholesterol” (Janssen Pharmaceutica N.V., priority 2006, dated 2014).)
